Measurements as given in ChEMBL document CHEMBL1909046, “DrugMatrix in vitro pharmacology data”.

Assays:
[1] = DRUGMATRIX: Glutamate, AMPA radioligand binding (ligand: [3H] AMPA); assay type: cell membranes, Rattus norvegicus, Wistar, Cerebral cortex, Membrane; settings: Not Active = under 50% inhibition at 10 µM
[2] = DRUGMATRIX: Calcium Channel Type L, Phenylalkylamine radioligand binding (ligand: [3H] (-)-Desmethoxyverapamil (D-888)); assay type: cell membranes, Rattus norvegicus, Wistar, Brain, Membrane; settings: Not Active = under 50% inhibition at 10 µM
Cytochrome P450 1A2 = molecular target: T1, Cytochrome P450 1A2 (Homo sapiens, UniProt P05177); settings: bti-tn-5b1-4; note: in other assays of this panel Not Active means under 50% inhibition at 10 µM
T1 sequence (P05177 whole entry): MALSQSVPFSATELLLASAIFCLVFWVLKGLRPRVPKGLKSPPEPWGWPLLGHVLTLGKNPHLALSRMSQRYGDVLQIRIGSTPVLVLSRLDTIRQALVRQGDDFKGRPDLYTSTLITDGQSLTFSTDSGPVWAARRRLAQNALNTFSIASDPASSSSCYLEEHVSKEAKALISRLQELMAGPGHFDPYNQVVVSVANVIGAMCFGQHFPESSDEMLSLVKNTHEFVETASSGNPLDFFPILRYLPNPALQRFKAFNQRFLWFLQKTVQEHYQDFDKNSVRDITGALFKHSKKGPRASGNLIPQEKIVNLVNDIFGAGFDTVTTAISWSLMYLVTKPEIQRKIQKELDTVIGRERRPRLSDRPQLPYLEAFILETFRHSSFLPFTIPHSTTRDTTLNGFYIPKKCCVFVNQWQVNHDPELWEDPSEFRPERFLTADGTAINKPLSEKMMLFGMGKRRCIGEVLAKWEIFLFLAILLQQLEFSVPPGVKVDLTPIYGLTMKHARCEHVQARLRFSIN

Cannabinoid receptor 1 = Cannabinoid receptor 1 (Homo sapiens, UniProt P21554); assay type: cell membranes, Membrane; settings: chem-1; note: in other assays of this panel Not Active means under 50% inhibition at 10 µM
Cannabinoid receptor 1, sequence (P21554 whole entry): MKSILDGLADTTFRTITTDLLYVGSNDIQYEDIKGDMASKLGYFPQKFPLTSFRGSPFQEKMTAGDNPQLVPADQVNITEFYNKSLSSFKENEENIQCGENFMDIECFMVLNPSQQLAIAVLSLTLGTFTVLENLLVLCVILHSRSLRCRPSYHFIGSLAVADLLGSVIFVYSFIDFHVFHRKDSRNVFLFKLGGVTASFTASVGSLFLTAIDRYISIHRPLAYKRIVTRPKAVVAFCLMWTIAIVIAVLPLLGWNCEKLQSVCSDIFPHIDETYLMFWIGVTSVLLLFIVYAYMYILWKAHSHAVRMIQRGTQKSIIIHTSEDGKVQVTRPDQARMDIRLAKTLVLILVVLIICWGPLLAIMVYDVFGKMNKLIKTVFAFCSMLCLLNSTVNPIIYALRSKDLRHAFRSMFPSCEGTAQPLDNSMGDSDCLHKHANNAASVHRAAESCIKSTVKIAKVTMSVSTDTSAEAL

[3] = molecular target: Receptor tyrosine-protein kinase erbB-2 (Homo sapiens, UniProt P04626); assay: biochemical; assay type: cell-based, Insect cells; settings: insect cells;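 note: inhibition of HER2 kinase enzyme activity, measured with Poly(Glu:Tyr) as the phosphorylation substrate; in other assays of this panel Not Active means under 50% inhibition at 10 µM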
[4] = DRUGMATRIX: Sodium/nucleoside co-transporter radioligand binding (ligand: nitrobenzylthioinosine); assay type: cell membranes, Cavia porcellus, Dunkin-Hartley, Cerebral cortex, Membrane; settings: Not Active = under 50% inhibition at 10 µM
B2 bradykinin receptor = molecular target: T2, B2 bradykinin receptor (Homo sapiens, UniProt P30411); assay type: cell membranes, Membrane; settings: chem-1; note: in other assays of this panel Not Active means under 50% inhibition at 10 µM
T2 sequence (P30411 whole entry): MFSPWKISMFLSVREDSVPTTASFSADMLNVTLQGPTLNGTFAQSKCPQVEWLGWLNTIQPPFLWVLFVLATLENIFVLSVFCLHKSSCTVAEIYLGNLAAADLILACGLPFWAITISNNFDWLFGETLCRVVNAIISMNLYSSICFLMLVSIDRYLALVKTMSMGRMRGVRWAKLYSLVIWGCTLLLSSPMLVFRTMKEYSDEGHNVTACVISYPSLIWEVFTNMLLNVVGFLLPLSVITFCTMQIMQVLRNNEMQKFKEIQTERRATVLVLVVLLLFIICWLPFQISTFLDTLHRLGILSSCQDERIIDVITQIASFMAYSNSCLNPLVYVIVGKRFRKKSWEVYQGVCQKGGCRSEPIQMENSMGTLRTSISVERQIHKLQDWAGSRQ

Compound | IC50 [1] | Ki [1] | IC50 [2] | Ki [2] | IC50 (Cytochrome P450 1A2) | Ki (Cytochrome P450 1A2) | IC50 (Cannabinoid receptor 1) | IC50 [3] | IC50 [4] | Ki [4] | IC50 (B2 bradykinin receptor) | IC50 ([2]; read-out: IC50) | Ki ([2]; read-out: Ki) | Ki (Cannabinoid receptor 1) | Ki [3] | Ki (B2 bradykinin receptor)
COc1ncnc(NS(=O)(=O)c2ccc(N)cc2)c1OC [SULFADOXINE] | Not Active | Not Active | Not Active | Not Active | Not Active | Not Active | Not Active | Not Active | Not Active | Not Active | Not Active |  |  |  |  | 
Nc1ccc(S(=O)(=O)Nc2nccs2)cc1 [SULFATHIAZOLE] | Not Active | Not Active | Not Active | Not Active | Not Active | Not Active | Not Active | Not Active | Not Active | Not Active | Not Active |  |  |  |  | 
C[C@]12CC[C@H]3[C@@H](CCC4=CC(=O)CC[C@@]43C)[C@@H]1CC[C@@H]2O [TESTOSTERONE] | Not Active | Not Active | Not Active | Not Active | Not Active | Not Active | Not Active | Not Active | Not Active | Not Active | Not Active |  |  |  |  | 
CC(C)(C)NC[C@H](O)COc1nsnc1N1CCOCC1 [TIMOLOL] | Not Active | Not Active | Not Active | Not Active | Not Active | Not Active | Not Active | Not Active | Not Active | Not Active | Not Active |  |  |  |  | 
C[C@@H]1C[C@H]2[C@@H]3CCC4=CC(=O)C=C[C@]4(C)C3=CC[C@]2(C)[C@H]1C(=O)CN1CCN(c2cc(N3CCCC3)nc(N3CCCC3)n2)CC1 [TIRILAZAD] | Not Active | Not Active |  |  | Not Active | Not Active | Not Active | Not Active | Not Active | Not Active | Not Active | 2.5 µM | 2.43 µM |  |  | 
O=C(O)C(Cl)(Cl)Cl [TRICHLOROACETIC ACID] | Not Active | Not Active | Not Active | Not Active | Not Active | Not Active | Not Active | Not Active | Not Active | Not Active | Not Active |  |  |  |  | 
CC(=O)O[C@H]1C[C@@H]2CC[C@@H]3[C@H](CC[C@@]4(C)[C@H]3C[C@H]([N+]3(C)CCCCC3)[C@@H]4OC(C)=O)[C@@]2(C)C[C@@H]1N1CCCCC1.[Br-] [VECURONIUM BROMIDE] | Not Active | Not Active | Not Active | Not Active | Not Active | Not Active | Not Active | Not Active | Not Active | Not Active | Not Active |  |  |  |  | 
COc1cc(C(=O)NS(=O)(=O)c2ccccc2C)ccc1Cc1cn(C)c2ccc(NC(=O)OC3CCCC3)cc12 [ZAFIRLUKAST] | Not Active | Not Active | Not Active | Not Active | Not Active | Not Active | Not Active | Not Active | Not Active | Not Active | Not Active |  |  |  |  | 
Cc1cn([C@H]2C[C@H](N=[N+]=[N-])[C@@H](CO)O2)c(=O)[nH]c1=O [ZIDOVUDINE] | Not Active | Not Active | Not Active | Not Active | Not Active | Not Active | Not Active | Not Active | Not Active | Not Active | Not Active |  |  |  |  | 
STANNOUS FLUORIDE | Not Active | Not Active | Not Active | Not Active | Not Active | Not Active | Not Active | Not Active | Not Active | Not Active | Not Active |  |  | Not Active | Not Active | Not Active
THIMEROSAL | Not Active | Not Active | Not Active | Not Active | Not Active | Not Active | Not Active | Not Active | Not Active | Not Active | Not Active |  |  | Not Active | Not Active | Not Active
